{"source": "patent US20240182531A1", "about": "“KV1.3 Blockers” (priority 2021, published 2024)", "key": {"human Kv1.1": {"target": "T1, human Kv1.1 (Homo sapiens, UniProt Q09470)", "T1 construct": "expressed in transfected cells; host or cells: CHO", "T1 sequence (Q09470 whole entry)": "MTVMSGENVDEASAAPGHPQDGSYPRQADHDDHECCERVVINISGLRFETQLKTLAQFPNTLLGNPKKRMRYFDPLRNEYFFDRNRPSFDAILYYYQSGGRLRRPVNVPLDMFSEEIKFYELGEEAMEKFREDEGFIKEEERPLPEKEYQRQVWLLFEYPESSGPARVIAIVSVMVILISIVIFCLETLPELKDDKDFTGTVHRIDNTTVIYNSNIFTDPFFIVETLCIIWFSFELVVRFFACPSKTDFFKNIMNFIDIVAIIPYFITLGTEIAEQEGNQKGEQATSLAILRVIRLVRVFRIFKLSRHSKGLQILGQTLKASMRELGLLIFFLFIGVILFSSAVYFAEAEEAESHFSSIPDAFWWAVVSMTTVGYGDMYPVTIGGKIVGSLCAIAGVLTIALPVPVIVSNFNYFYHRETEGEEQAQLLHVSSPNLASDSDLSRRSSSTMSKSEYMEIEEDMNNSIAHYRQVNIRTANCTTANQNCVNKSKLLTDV", "experiment": "cell-based"}, "human Kv1.2": {"target": "T2, human Kv1.2 (Homo sapiens, UniProt P16389)", "T2 construct": "expressed in transfected cells; host or cells: CHO", "T2 sequence (P16389 whole entry)": "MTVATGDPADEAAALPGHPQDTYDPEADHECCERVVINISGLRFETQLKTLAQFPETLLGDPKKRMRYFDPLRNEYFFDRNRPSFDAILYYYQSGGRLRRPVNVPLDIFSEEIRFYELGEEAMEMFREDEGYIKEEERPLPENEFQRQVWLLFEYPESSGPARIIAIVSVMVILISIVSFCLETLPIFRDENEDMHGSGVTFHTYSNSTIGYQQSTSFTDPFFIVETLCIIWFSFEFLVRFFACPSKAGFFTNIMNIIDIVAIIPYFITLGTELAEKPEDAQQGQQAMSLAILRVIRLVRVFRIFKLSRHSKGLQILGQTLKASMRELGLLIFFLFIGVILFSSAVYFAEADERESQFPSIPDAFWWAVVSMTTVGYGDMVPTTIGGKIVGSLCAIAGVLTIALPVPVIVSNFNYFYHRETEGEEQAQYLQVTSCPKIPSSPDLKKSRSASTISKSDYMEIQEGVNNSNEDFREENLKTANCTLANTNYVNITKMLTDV", "experiment": "cell-based"}, "human Kv1.6": {"target": "T3, human Kv1.6 (Homo sapiens, UniProt P17658)", "T3 construct": "expressed in transfected cells; host or cells: CHO", "T3 sequence (P17658 whole entry)": "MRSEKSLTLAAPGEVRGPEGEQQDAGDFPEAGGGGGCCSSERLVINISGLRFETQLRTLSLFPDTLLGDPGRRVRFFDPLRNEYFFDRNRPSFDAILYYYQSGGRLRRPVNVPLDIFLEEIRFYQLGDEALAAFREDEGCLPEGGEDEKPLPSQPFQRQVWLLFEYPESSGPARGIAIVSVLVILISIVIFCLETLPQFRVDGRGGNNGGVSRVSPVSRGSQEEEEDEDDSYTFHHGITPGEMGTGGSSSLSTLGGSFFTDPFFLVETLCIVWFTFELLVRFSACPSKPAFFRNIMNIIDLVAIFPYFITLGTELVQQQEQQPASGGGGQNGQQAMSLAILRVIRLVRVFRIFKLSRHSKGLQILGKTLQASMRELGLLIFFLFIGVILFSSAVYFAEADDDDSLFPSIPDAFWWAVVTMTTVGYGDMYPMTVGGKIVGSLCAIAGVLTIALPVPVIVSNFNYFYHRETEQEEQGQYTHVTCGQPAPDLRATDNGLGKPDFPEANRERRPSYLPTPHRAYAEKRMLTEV", "experiment": "cell-based"}, "[1]": {"tested_on": "Human peripheral blood mononuclear cells (PBMCs)", "type": "cell-based", "conditions": "geometric mean, at least 4 replicates, Example 5a; for IC50: read-out: anti-CD3 PBMC/IL-2 IC50", "description": "Human peripheral blood mononuclear cells (PBMCs) were used to assess the effects of Kv1.3 blocker reference compounds on T-cell activation as determined by IL-2 (cytokine) release after stimulation with anti-CD3.\nHuman PBMCs were obtained from Precision for Medicine (Frederick, MD). Cells from 5 donors were used. Plate-bound anti-CD3 was used to stimulate bulk T cells in the PBMC preparations. Briefly, 96-well plates were coated with anti-CD3 antibody for 2 hrs at 37° C., using 50 μL of a 0.5 μg/mL anti-CD3 solution diluted in 1×PBS. Thereafter the plates were washed twice.\nKv1.3 blockers as shown in Table 8a were diluted in medium (RPMI 1640 with Glutamax-I containing 10% v/v Fetal Bovine Serum, 1% v/v penicillin-streptomycin solution) and added in a volume of 100 μL at concentrations ranging from 0.01 pM to 100 nM (tenfold dilutions). […] Finally, 1×10^5 PBMCs were added to each well in a volume of 100 μL, giving a final volume of 200 μL per well. The plates were incubated for 20-24 hours in a 37 °C/5% CO2 incubator. After centrifugation of the plates, 25 μl supernatant was transferred to IL-2 detection plates (MSD Human IL-2 Tissue Culture Kit, cat #K151AHB-2) and IL-2 was measures as described by the manufacturer (Meso Scale Discovery, Rockville, Maryland, USA).\nResults are shown in Table 8a as geometric mean of IC50 values obtained from anti-CD3 stimulated human PBMC assays. All values derive from at least 4 replicates."}, "Rat whole blood": {"target": "Rat whole blood (Rattus norvegicus, UniProt P15384)", "sequence (P15384 whole entry)": "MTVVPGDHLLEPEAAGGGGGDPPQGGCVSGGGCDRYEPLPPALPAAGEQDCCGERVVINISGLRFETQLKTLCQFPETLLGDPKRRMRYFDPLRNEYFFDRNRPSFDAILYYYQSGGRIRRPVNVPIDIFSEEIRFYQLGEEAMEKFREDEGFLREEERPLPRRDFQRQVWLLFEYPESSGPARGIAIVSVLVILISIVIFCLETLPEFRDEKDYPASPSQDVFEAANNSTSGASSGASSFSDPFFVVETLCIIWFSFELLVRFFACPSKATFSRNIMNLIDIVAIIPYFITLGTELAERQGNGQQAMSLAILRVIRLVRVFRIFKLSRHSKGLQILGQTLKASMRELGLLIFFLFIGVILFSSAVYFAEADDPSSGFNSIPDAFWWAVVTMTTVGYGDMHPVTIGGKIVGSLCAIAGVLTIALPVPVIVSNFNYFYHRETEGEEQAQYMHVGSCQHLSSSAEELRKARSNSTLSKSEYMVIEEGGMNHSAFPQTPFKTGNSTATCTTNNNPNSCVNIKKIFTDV", "type": "cell-based", "conditions": "IL-17A release, thapsigargin, 24 Hr, at least 2 replicates"}, "[2]": {"experiment": "Pharmacokinetic characterisation after single s.c. injection in Sprague Dawley rats", "conditions": "male, rat, plasma, sc, 100 nmol/kg", "description": "Sprague Dawley (males with a body weight of approximately 250-350 g) were given a single subcutaneous (s.c.) injection of each peptide to be tested.\nFollowing s.c. administration of the selected compounds (dose 100 nmol/kg, dosing volume either 2 mL/kg), blood samples were drawn at 5 min, 15 min, 30 min, 60 min, 2 h, 3 h, 4 h, 6 h, 8 h post-dose. At each sampling time point, samples from the rats were drawn by sublingual bleeding. After last sampling the rats were sacrificed by O2/CO2 anaesthesia. The dosing vehicle was 10 mM phosphate, 0.8% NaCl, 0.05% Polysorbate 20 (pH 6.0).\nPlasma samples were analyzed after solid phase extraction (SPE) by liquid chromatography mass spectrometry (LC-MS/MS). Mean plasma concentrations were used for calculation of the pharmacokinetic parameters using the non-compartmental approach in Phoenix WinNonlin 6.4 or a later version. Plasma terminal elimination half-life (T½) was determined as In(2)/λz where λz is the magnitude of the slope of the log linear regression of the log concentration versus time profile during the terminal phase. AUCinf is the area under the plasma concentration—time curve extrapolated to infinity (AUCinf=AUClast+Clast/λz, where Clast is the last observed plasma concentration). Cmax is the maximum observed concentration, occurring at Tmax."}, "[3]": {"tested_on": "KLH ear inflammation model in rats", "type": "in vivo, rat", "conditions": "100 nmol/kg SC 24 hrs prior to KLH ear challenge; +/− SD"}, "[4]": {"conditions": "ratio of patch clamp IC50 values"}}, "note": "Values joined by “and” are separate entries in the source; they are usually repeats but may differ in a detail not shown here. Identical values can stand only once. Like-named read-outs stand apart in the source and are kept apart here. Where a SMILES comes first, the peptide text is derived from it. Bridges are numbered along the chain shown (N, C = ends). [ ]: non-standard residue; d: D form. Nle = CCCC[C@H](N)C(=O)O", "data": [{"smiles": "CCCC[C@@H]1NC(=O)[C@@H]2CSSC[C@H](NC(=O)[C@H](CCCNC(=N)N)NC(=O)[C@H](CCSC)NC(=O)[C@H](CC(=O)O)NC(=O)[C@H](CCSC)NC(=O)[C@@H](N)CC(N)=O)C(=O)N[C@@H](CO)C(=O)N[C@@H](C)C(=O)N[C@@H](CO)C(=O)N[C@@H](C(C)C)C(=O)N[C@@H](CCC(=O)O)C(=O)N[C@H]3CSSC[C@H](NC(=O)[C@H](CCCCN)NC(=O)[C@H](CCCCN)NC(=O)[C@H](CC(N)=O)NC1=O)C(=O)N[C@@H](CCCCN)C(=O)N[C@H](C(=O)N[C@@H](Cc1ccc(O)cc1)C(=O)N1CCC[C@H]1C(=O)N[C@@H](CCCNC(=N)N)C(N)=O)CSSC[C@H](NC(=O)[C@H](CCCCN)NC(=O)[C@H](CCC(N)=O)NC(=O)[C@H](CCCCN)NC3=O)C(=O)N[C@@H](CC(C)C)C(=O)N[C@@H](CCCCN)C(=O)N[C@@H](C)C(=O)N[C@@H]([C@@H](C)CC)C(=O)NCC(=O)N[C@@H](CO)C(=O)N[C@@H]([C@@H](C)CC)C(=O)N[C@@H](Cc1ccccc1)C(=O)NCC(=O)N[C@@H](CCCCN)C(=O)N2", "note": "[compound 21] (H-NMDMRCSASVECKQKCLKAIGSIFGKC[Nle]NKKCKCYPR-NH2; disulfide 6-27, 12-32, 16-34)", "values": [{"measurement": "Selectivity ratio Kv1.1/Kv1.3", "setting": "human Kv1.1; [4]", "result": ">12600"}, {"measurement": "Selectivity ratio Kv1.2/Kv1.3", "setting": "human Kv1.2; [4]", "result": 561}, {"measurement": "Selectivity ratio Kv1.6/Kv1.3", "setting": "human Kv1.6; [4]", "result": 10360}, {"measurement": "IC50", "setting": "[1]", "result": 0.05, "unit": "nM"}]}, {"smiles": "CC[C@H](C)[C@@H]1NC(=O)[C@H](C)NC(=O)[C@H](CCCCN)NC(=O)[C@H](CC(C)C)NC(=O)[C@@H]2CSSC[C@@H](C(=O)N[C@@H](Cc3ccc(O)cc3)C(=O)N3CCC[C@H]3C(=O)N[C@@H](CCCNC(=N)N)C(N)=O)NC(=O)[C@H](CCCCN)NC(=O)[C@@H]3CSSC[C@H](NC(=O)[C@H](CCC(=O)O)NC(=O)[C@H](C(C)C)NC(=O)[C@H](CO)NC(=O)[C@H](C)NC(=O)[C@H](CO)NC(=O)[C@@H](NC(=O)[C@H](CCCNC(=N)N)NC(=O)[C@H](CCSC)NC(=O)[C@H](CC(=O)O)NC(=O)[C@H](CCSC)NC(=O)[C@@H](N)CC(N)=O)CSSC[C@H](NC(=O)[C@H](CCCCN)NC(=O)CNC(=O)[C@H](Cc4ccccc4)NC(=O)[C@H]([C@@H](C)CC)NC(=O)[C@H](CO)NC(=O)CNC1=O)C(=O)N[C@@H](CCSC)C(=O)N[C@@H](CC(N)=O)C(=O)N[C@@H](CCCCN)C(=O)N[C@@H](CCCCN)C(=O)N3)C(=O)N[C@@H](CCCCN)C(=O)N[C@@H](C(C)C)C(=O)N[C@@H](CCCCN)C(=O)N2", "note": "[compound 22] (H-NMDMRCSASVECKVKCLKAIGSIFGKCMNKKCKCYPR-NH2; disulfide 6-27, 12-32, 16-34)", "values": [{"measurement": "Selectivity ratio Kv1.1/Kv1.3", "setting": "human Kv1.1; [4]", "result": ">7200"}, {"measurement": "Selectivity ratio Kv1.2/Kv1.3", "setting": "human Kv1.2; [4]", "result": 159}, {"measurement": "Selectivity ratio Kv1.6/Kv1.3", "setting": "human Kv1.6; [4]", "result": 2182}, {"measurement": "IC50", "setting": "[1]", "result": 0.4, "unit": "nM"}, {"measurement": "IC50", "setting": "Rat whole blood", "result": 0.88, "unit": "nM"}]}, {"smiles": "CC[C@H](C)[C@@H]1NC(=O)[C@H](C)NC(=O)[C@H](CCCCN)NC(=O)[C@H](CC(C)C)NC(=O)[C@@H]2CSSC[C@@H](C(=O)N[C@@H](Cc3ccc(O)cc3)C(=O)N3CCC[C@H]3C(=O)N[C@@H](CCCNC(=N)N)C(N)=O)NC(=O)[C@H](CCCCN)NC(=O)[C@@H]3CSSC[C@H](NC(=O)[C@H](CCC(=O)O)NC(=O)[C@H](C(C)C)NC(=O)[C@H](CO)NC(=O)[C@H](C)NC(=O)[C@H](CO)NC(=O)[C@@H](NC(=O)[C@H](CCCNC(=N)N)NC(=O)[C@H](CCSC)NC(=O)[C@H](CC(=O)O)NC(=O)[C@H](CCSC)NC(=O)[C@@H](N)CC(N)=O)CSSC[C@H](NC(=O)[C@H](CCCCN)NC(=O)CNC(=O)[C@H](Cc4ccccc4)NC(=O)[C@H](CCCNC(=N)N)NC(=O)[C@H](CO)NC(=O)CNC1=O)C(=O)N[C@@H](CCSC)C(=O)N[C@@H](CC(N)=O)C(=O)N[C@@H](CCCCN)C(=O)N[C@@H](CCCCN)C(=O)N3)C(=O)N[C@@H](CCCCN)C(=O)N[C@@H](CCC(N)=O)C(=O)N[C@@H](CCCCN)C(=O)N2", "note": "[compound 39] (H-NMDMRCSASVECKQKCLKAIGSRFGKCMNKKCKCYPR-NH2; disulfide 6-27, 12-32, 16-34)", "values": [{"measurement": "Selectivity ratio Kv1.1/Kv1.3", "setting": "human Kv1.1; [4]", "result": ">15000"}, {"measurement": "Selectivity ratio Kv1.2/Kv1.3", "setting": "human Kv1.2; [4]", "result": 88}, {"measurement": "Selectivity ratio Kv1.6/Kv1.3", "setting": "human Kv1.6; [4]", "result": 963}, {"measurement": "IC50", "setting": "[1]", "result": 0.1, "unit": "nM"}, {"measurement": "IC50", "setting": "Rat whole blood", "result": 2.5, "unit": "nM"}]}, {"smiles": "CC[C@H](C)[C@H](N)C(=O)N[C@@H](CC(N)=O)C(=O)N[C@H](C(=O)N[C@@H](CCCCN)C(=O)N[C@H]1CSSC[C@@H]2NC(=O)[C@H](CCCCN)NC(=O)CNC(=O)[C@H](Cc3ccccc3)NC(=O)[C@H](CCCNC(=N)N)NC(=O)[C@H](CCSC)NC(=O)CNC(=O)[C@H](C)NC(=O)[C@H](CC(=O)O)NC(=O)[C@H](CCCCN)NC(=O)[C@@H]3CSSC[C@@H](C(=O)N[C@@H](Cc4ccc(O)cc4)C(=O)N[C@@H](CO)C(=O)O)NC(=O)[C@H](CCCNC(=N)N)NC(=O)[C@H](CSSC[C@H](NC(=O)[C@H](CCC(N)=O)NC(=O)[C@H](CCC(N)=O)NC(=O)[C@@H]4CCCN4C(=O)[C@H](CC(C)C)NC(=O)[C@H](CO)NC1=O)C(=O)N[C@@H]([C@@H](C)CC)C(=O)N[C@@H](CCCCN)C(=O)N1CCC[C@H]1C(=O)N3)NC(=O)[C@H](CCCCN)NC(=O)[C@H](CCCCN)NC(=O)[C@H](CC(N)=O)NC(=O)[C@H](CCSC)NC2=O)C(C)C", "note": "[Moka1]", "values": [{"measurement": "Selectivity ratio Kv1.1/Kv1.3", "setting": "human Kv1.1", "result": ">300"}, {"measurement": "Selectivity ratio Kv1.2/Kv1.3", "setting": "human Kv1.2", "result": 31}, {"measurement": "Selectivity ratio Kv1.6/Kv1.3", "setting": "human Kv1.6", "result": ">300"}, {"measurement": "anti-CD3 PBMC/IL-2 IC50", "setting": "[1]", "result": "less potent in inhibiting IL-2 secretion"}]}, {"smiles": "CCCC[C@H](NC(=O)[C@@H]1CCCN1)C(=O)N[C@@H](CCC(=O)O)C(=O)N[C@@H](CCCC)C(=O)N[C@@H](CCCNC(=N)N)C(=O)N[C@H]1CSSC[C@@H]2NC(=O)[C@H](CCCCN)NC(=O)CNC(=O)[C@H](Cc3ccccc3)NC(=O)[C@H]([C@@H](C)CC)NC(=O)[C@H](CO)NC(=O)CNC(=O)[C@H]([C@@H](C)CC)NC(=O)[C@H](C)NC(=O)[C@H](C)NC(=O)[C@H](CC(C)C)NC(=O)[C@@H]3CSSC[C@@H](C(=O)N[C@@H](Cc4ccc(O)cc4)C(=O)N4CCC[C@H]4C(=O)N[C@@H](CCCNC(=N)N)C(=O)O)NC(=O)[C@H](CCCCN)NC(=O)[C@H](CSSC[C@H](NC(=O)[C@H](CCC(=O)O)NC(=O)[C@H](C(C)C)NC(=O)[C@H](CO)NC(=O)[C@H](C)NC(=O)[C@H](CO)NC1=O)C(=O)N[C@@H](CCCCN)C(=O)N[C@@H](CCC(N)=O)C(=O)N[C@@H](CCCCN)C(=O)N3)NC(=O)[C@H](CCCCN)NC(=O)[C@H](CCCCN)NC(=O)[C@H](CC(N)=O)NC(=O)[C@H](CCCC)NC2=O", "note": "[compound 14] (H-P[Nle]E[Nle]RCSASVECKQKCLAAIGSIFGKC[Nle]NKKCKCYPR-OH; disulfide 6-27, 12-32, 16-34)", "values": [{"measurement": "AUC(0-inf)", "setting": "[2]", "result": 0.183, "unit": "µM·h"}, {"measurement": "Cmax", "setting": "[2]", "result": 103, "unit": "nM"}, {"measurement": "half-life", "setting": "[2]", "result": 1, "unit": "h"}, {"measurement": "Selectivity ratio Kv1.1/Kv1.3", "setting": "human Kv1.1; [4]", "result": ">9100"}, {"measurement": "Selectivity ratio Kv1.2/Kv1.3", "setting": "human Kv1.2; [4]", "result": 3384}, {"measurement": "Selectivity ratio Kv1.6/Kv1.3", "setting": "human Kv1.6; [4]", "result": ">9100"}, {"measurement": "IC50", "setting": "Rat whole blood", "result": 0.43, "unit": "nM"}, {"measurement": "% inhibition of ear thickness (AUC of Δ ear thickness 0-48 hours)", "setting": "[3]", "result": "37.7% and 42.5%"}]}]}
